In ChEMBL document CHEMBL3785085, “Pharmacokinetics of single and multiple doses of phenytoin in man” (Eur J Clin Pharmacol, 1974):

Key:
[1] = Half life at post steady state in healthy human volunteer (5 volunteers) at 2 mg/kg, po bid administered for 12 days by gas chromatographic method; format: ADME, organism-based; conditions: in vivo
[2] = Cmax in healthy human volunteer (5 volunteers) at 5 mg/kg, po administered as single dose by gas chromatographic method; format: ADME, organism-based; design: dose 5 mg/kg, route oral; conditions: in vivo
[3] = Half life in healthy human volunteer (5 volunteers) at 5 mg/kg, iv administered as single dose through infusion by gas chromatographic method; format: ADME, organism-based; conditions: in vivo
[4] = Half life in healthy human volunteer (5 volunteers) at 5 mg/kg, po administered as single dose by gas chromatographic method; format: ADME, organism-based; conditions: in vivo
Homo sapiens = assay: Anticonvulsant activity in po dose patient assessed as compound level in plasma required to decrease epileptic seizure; format: functional
Plasma = assay: Plasma concentration at steady state in healthy human volunteer (5 volunteers) at 2 mg/kg, po bid administered for 12 days by gas chromatographic method; format: ADME, organism-based; conditions: in vivo, 288 h
[5] = Drug uptake in healthy human volunteer (5 volunteers) at 5 mg/kg, iv administered as single dose through infusion after 0.5 hrs by gas chromatographic method; format: ADME, organism-based; conditions: in vivo, read-out: Drug uptake
[6] = Half life during steady state in healthy human volunteer (5 volunteers) at 2 mg/kg, po bid administered for 12 days by gas chromatographic method; format: ADME, organism-based; conditions: in vivo
[7] = Apparent volume of distribution (area) in healthy human volunteer (5 volunteers) at 5 mg/kg, iv administered as single dose through infusion by gas chromatographic method; format: ADME, organism-based; conditions: in vivo, read-out: Vd(app)
[8] = Total plasma clearance in healthy human volunteer (5 volunteers) at 5 mg/kg, iv administered as single dose by gas chromatographic method; format: ADME, organism-based

half-life [1]: 15.9 h | Cmax [2]: 2600 ng/mL | half-life [3]: 14.5 h | half-life [4]: 16.6 h | Cpss (Plasma): 5.3 µg/mL | concentration at 0.5 h [5]: 8400 ng/mL | half-life [6]: 21.3 h | Vd [7]: 0.52 L/kg | clearance [8]: 0.367 mL/min/kg
Compound: O=C1N=C([O-])NC1(c1ccccc1)c1ccccc1.[Na+] [PHENYTOIN SODIUM]
MEC (Homo sapiens): 10 µg/mL
